{"source": "patent US20190225652A1", "about": "“GENERATION OF PEPTIDES” (Hexima Limited, priority 2015, published 2019)", "type_in_all_cases": "biochemical, Oldenlandia affinis", "key": {"[1]": {"system": "rOaAEP1b", "assay": "Inhibition assay: rOaAEP1b activity against wt IQF peptide", "settings": "40 minutes preincubation, rOaAEP1b 4.4 μg mL^−1, IQF peptide 11 μM, 90 minutes", "protocol": "FIG. 16 is a graphical representation of rOaAEP1b activity against the IQF peptide Abz-STRNGLPS-Y(3NO2) [SEQ ID NO:21] in the presence of protease inhibitors. rOaAEP1b (4.4 μg mL^−1 total protein) was allowed to cleave the IQF peptide (11 μM) for 90 minutes. Enzyme activity against the IQF peptide in the presence of either the Ac-YVAD-CHO or Ac-STRN-CHO inhibitors is reported relative to a no inhibitor control at the 90 minutes time point.\nTo assay activity of recombinant AEPs (rOaAEP1b, rOaAEP3, rOaAEP4 or rOaAEP5) against both internally-quenched and other fluorescent peptides, substrate and enzyme were diluted as appropriate in activity buffer (50 mM sodium acetate, 50 mM NaCl, 1 mM EDTA, 0.5 μM TCEP, pH 5). […] The change in fluorescence intensity over time was monitored on a SpectraMax M2 (Molecular Devices) using excitation/emission wavelengths of 320/420 nm (IQF peptides) or 360/460 nm (other fluorescent peptides).\nTo investigate the impact of inhibitors on enzyme activity against the wild type IQF peptide, Abz-STRNGLPS-Y(3NO2), rOaAEP1b (4.4 μg mL^−1 total protein) was incubated with Ac-YVAD-CHO (500 μM) or Ac-STRN-CHO (409 μM) for 40 minutes prior to addition to the substrate (11 μM). Enzyme activity against the wt IQF peptide was then assessed as described above."}, "[2]": {"system": "rOaAEP1b", "assay": "Cyclization assay with rOaAEP1b (MALDI MS)", "settings": "MALDI MS"}, "[3]": {"system": "rOaAEP1b", "assay": "Kinetics of rOaAEP1b-mediated cyclisation of wt kB1 precursor (RP-HPLC, Michaelis-Menten)", "settings": "substrate 75-250 μM, room temperature, 5 min, enzyme 19.7 μg ml^−1 total protein, ±s.e.m.", "protocol": "FIG. 7 is a graphical representation showing the kinetics of rOaAEP1b-mediated cyclisation. Varying concentrations of substrate (kB1wt precursor) were incubated with enzyme (19.7 μg mL^−1 total protein) for 5 min. The amount of product formed was inferred by monitoring depletion of the precursor by RP-HPLC. […] The kinetic parameters derived from this plot are listed (±SEM).\nTo determine the kinetics of rOaAEP1b activity against the wt kB1 precursor (FIG. 1; SEQ ID NO: 11), the substrate was assayed at room temperature at a range of concentrations between 75 and 250 μM in a total volume of 20-160 μl of activity buffer. The total protein concentration of the enzyme preparation added to the kinetic assays was 19.7 μg ml^−1. The reaction was quenched after 5 min with 0.1% TFA and the volume adjusted to 800 μl. A volume of 700 μl was loaded onto a reversed-phase C18 analytical column (Agilent Eclipse C18, 5 μm, 4.6×150 mm) and peptides were separated by HPLC (19 min linear gradient of 12-60% acetonitrile, 0.1% TFA at 1 ml min^−1). The identity of eluted peaks was confirmed using MALDI MS. The area under the curve corresponding to the precursor peptide was quantitated by comparison to a standard curve and initial velocities were calculated by converting this to μmoles product formed. […]"}, "[4]": {"system": "rOaAEP1b, rOaAEP3, rOaAEP4 and rOaAEP5", "assay": "Cyclization assay with rOaAEP1b, rOaAEP3, rOaAEP4 and rOaAEP5 (MALDI/ESI MS)", "settings": "for cyclization of linear precursor peptide by recombinant AEPs: peptides with added AEP recognition residues, 280 μM, enzymes 19.7 μg mL^−1 total protein, MS", "protocol": "Linear target peptides (280 μM, unless otherwise indicated) were incubated with rOaAEP1b, rOaAEP3, rOaAEP4 or rOaAEP5 (total protein concentration as indicated in the description of figures) in activity buffer (50 mM sodium acetate, 50 mM NaCl, 1 mM ethylenediaminetetraacetic acid [EDTA], 0.5 μM Tris(2-carboxyethyl)phosphine hydrochloride [TCEP], pH 5). The reaction was allowed to proceed for up to 22 hours at room temperature and was analysed by matrix-assisted laser desorption/ionization mass spectrometry (MALDI MS), high performance liquid chromatography (HPLC) or nuclear magnetic resonance (NMR) as appropriate.\n(§1) Cyclization or inter-molecular ligation of linear target peptides was monitored by MALDI or ESI MS. In both cases, the reaction mixture (5-50 μL) was de-salted using C18 zip tips (Millipore) and eluted in 4 μL 50-75% v/v acetonitrile, 0.1% v/v trifluoroacetic acid (TFA).\n(§2) For MALDI MS, a saturated MALDI matrix solution (α-cyano-4-hyroxycinnamic acid, CHCA, Bruker) prepared in 95% v/v acetonitrile, 0.1% v/v TFA was diluted 1:22 such that the final matrix solution comprised 90% v/v acetonitrile, 0.1% v/v TFA and 1 mM NH4H2PO4. Eluted samples were mixed 1:4 with the MALDI matrix, spotted onto a MALDI plate and analyzed by an Ultraflex III TOF/TOF (Bruker) in positive reflector mode. Data were analyzed using the flexAnalysis program (Bruker).\n(§3) For ESI MS, 96 μl of 75% v/v acetonitrile, 01% v/v TFA was added to the de-salted sample. The sample was then injected into a MicroTOF Q (Bruker) and data was collected in positive ionisation mode. The mass of ligated or cyclized product was determined by charge deconvolution using the Compass DataAnalysis program (Bruker).\nThe ability of activated AEPs (rOaAEP1b, rOaAEP3, rOaAEP4 and rOaAEP5) to cyclize peptide substrates structurally unrelated to cyclotides was tested in the cyclization assay described in the Materials and Methods. The anti-malarial peptide R1 (Harris et al. (2009) J Biol Chem 284(14):9361-9371; Harris et al. (2005) Infect Immun 73(10):6981-6989); Bac2A, a linear derivative of the bovine peptide bactenecin (Wu and Hancock (1999) Antimicrob Agents Ch 43:1274-1276); and the anti-fungal peptide EcAMP1 (Nolde et al. (2011) J Biol Chem 286(28):25145-25153) were produced with additional AEP recognition residues and used as the substrates.\nTo investigate the sequence requirements for in vitro cyclization, R1 was used as a model peptide. The recognition residues added to this model peptide were sequentially trimmed to determine the minimal requirements for AEP-mediated cyclization. The N- and C-terminal recognition residues were also substituted with alternate amino acids to determine if particular classes of residues were preferred for cyclization by these recombinant AEPs. The ability of activated AEPs (rOaAEP1b, rOaAEP3, rOaAEP4 and rOaAEP5) to cyclize the R1 peptide with varied flanking sequences was then tested in the cyclization assay described in the Materials and Methods (FIG. 10; Table 3)."}, "[5]": {"system": "rOaAEP1b, rOaAEP3, rOaAEP4 and rOaAEP5", "assay": "Intermolecular ligation assay with recombinant AEPs", "settings": "target 140 μM", "protocol": "Target peptides (140 μM) were incubated with a ligation partner peptide (700 μM) and a recombinant AEP (rOaAEP1b, rOaAEP3, rOaAEP4 or rOaAEP5 at 19.7 μg mL^−1 total protein) in activity buffer (50 mM sodium acetate, 50 mM NaCl, 1 mM EDTA, 0.5 μM TCEP, pH 5). The reaction was allowed to proceed for up to 22 hours at room temperature and was analysed by MALDI MS or electrospray ionisation (ESI) mass spectrometry as appropriate.\nas §1, §2, §3\nTo investigate the ability of recombinantly produced AEPs to perform inter-molecular ligation (as well as the intra-molecular ligation required to produce backbone-cyclized peptides), target peptides were incubated with ligation partner peptides as well as active enzyme (FIG. 11). The appearance of new linear peptides were tracked. […]"}}}
{"substance": "Ac-STRN-aldehyde", "values": [{"measurement": "efficacy of inhibitor against rOaAEP1b", "setting": "[1]; inhibitor 409 μM", "result": "limited efficacy"}]}
{"substance": "wt kB1 precursor: synthetic linear kalata B1 precursor carrying the native C-terminal pro-hepta-peptide (GLPSLAA) (GLPVCGETCVGGTCNTPGCTCSWPVCTRNGLPSLAA; kB1wt)", "values": [{"measurement": "processing/cyclization by rOaAEP1b", "setting": "[2]", "result": "consistent with the expected mass of mature, cyclic kB1"}, {"measurement": "kcat", "setting": "[3]; conservative estimate (32 kDa, total protein taken as active enzyme)", "result": "0.53 (±0.1) s^−1"}, {"measurement": "Km", "setting": "[3]", "result": 212, "unit": "µM"}]}
{"substance": "GKVFAEFLPLFSKFGSRMHILKNGL (Target peptide; R1) [SEQ ID NO:83, R1 peptide derivative]", "values": [{"measurement": "cyclization of linear precursor peptide by recombinant AEPs", "setting": "[4]", "result": "poor substrate for backbone cyclization"}, {"measurement": "inter-molecular ligation, C-terminal labelling", "setting": "[5]; ligation partner GLK-biotin 700 μM, enzymes 19.7 μg mL^−1, 6 h, MALDI-MS", "result": "created a new linear peptide that incorporated a C-terminal biotin"}]}
{"substance": "GLP-NaD1-TRNGLP: plant defensin NaD1 with AEP recognition residues at N- and C-termini, expressed in Pichia pastoris (GLPRECKTESNTFPGICITKPPCRKACISEKFTDGHCSKILRRCLCTKPCTRNGLP; Target peptides)", "values": [{"measurement": "AEP-mediated backbone cyclization of modified NaD1", "setting": "[4]; 140 μM, no ligation partner, ESI-MS", "result": "no evidence of backbone-cyclization"}, {"measurement": "inter-molecular ligation, C-terminal labelling", "setting": "[5]; ligation partner GLPVSGE or PLPVSGE 700 μM, enzymes 19.7 μg mL^−1, 6-22 h, ESI-MS", "result": "new, linear, peptides were detected"}]}
{"substance": "GLVFAEFLPLFSKFGSRMHILKGHV (R1) [SEQ ID NO:61, R1 peptide derivative]", "values": [{"measurement": "cyclization of linear precursor peptide by recombinant AEPs", "setting": "[4]", "result": "not itself an AEP substrate"}, {"measurement": "inter-molecular ligation, N-terminal labelling", "setting": "[5]; ligation partner biotin-TRNGL 700 μM, enzymes 19.7 μg mL^−1, 6 h, MALDI-MS", "result": "created a new linear peptide that incorporated an N-terminal biotin"}]}
{"substance": "Ac-YVAD-CHO", "values": [{"measurement": "efficacy of inhibitor against rOaAEP1b", "setting": "[1]; inhibitor 500 μM", "result": "limited efficacy"}]}
